Data published in US8993542B2, “Methods of treating viral infections” (priority 2008, dated 2015).

System: HIV-1IIIB
Assay: TCID50 determination of drug-treated HIV-1IIIB
Assay type: cell-based
Set-up: TCID50, XTT Endpoint / TCID50, RT Endpoint / TCID50, P24 Endpoint: unit not given here
[1] = 500 nM, compound removal at 1 minute
[2] = 500 nM, compound removal at 15 minutes
[3] = 500 nM, compound removal at 30 minutes
[4] = 500 nM, compound removal at 60 minutes
[5] = 500 nM, compound removal at 120 minute
[6] = virus treated 15 minutes with 0.039 nM drug
[7] = virus treated 15 minutes with 0.125 nM drug
[8] = virus treated 15 minutes with 0.39 nM drug
[9] = virus treated 15 minutes with 1.25 nM drug
[10] = virus treated 15 minutes with 3.9 nM drug
[11] = virus treated 15 minutes with 12.5 nM drug
[12] = virus treated 15 minutes with 39.1 nM drug
[13] = virus treated 15 minutes with 125 nM drug

CCCCCCCCCCCCCCCCOCCCOP(=O)(O)CO[C@H](C)Cn1cnc2c(N)ncnc21 [CMX157, Hexadecyloxypropyl-9-R-[2-(Phosphonomethoxy)Propyl]-Adenine]
Fold Decrease From VC, P24 Endpoint [1]: (8.0) Fold
Fold Decrease From VC, RT Endpoint [1]: (5.2) Fold
Fold Decrease From VC, XTT Endpoint [1]: (2.2) Fold
TCID50, P24 Endpoint [1]: 4529
TCID50, RT Endpoint [1]: 25588
TCID50, XTT Endpoint [1]: 2014
Fold Decrease From VC, P24 Endpoint [2]: (5.7) Fold
Fold Decrease From VC, RT Endpoint [2]: (3.6) Fold
Fold Decrease From VC, XTT Endpoint [2]: (4.0) Fold
TCID50, P24 Endpoint [2]: 6398
TCID50, RT Endpoint [2]: 18115
TCID50, XTT Endpoint [2]: 1132
Fold Decrease From VC, P24 Endpoint [3]: (2.0) Fold
Fold Decrease From VC, RT Endpoint [3]: (2.8) Fold
Fold Decrease From VC, XTT Endpoint [3]: (2.0) Fold
TCID50, P24 Endpoint [3]: 18115
TCID50, RT Endpoint [3]: 22805
TCID50, XTT Endpoint [3]: 2014
Fold Decrease From VC, P24 Endpoint [4]: (4.0) Fold
Fold Decrease From VC, RT Endpoint [4]: (3.4) Fold
Fold Decrease From VC, XTT Endpoint [4]: (2.5) Fold
TCID50, P24 Endpoint [4]: 9058
TCID50, RT Endpoint [4]: 25588
TCID50, XTT Endpoint [4]: 1600
Fold Decrease From VC, P24 Endpoint [5]: (5.7) Fold
Fold Decrease From VC, RT Endpoint [5]: (3.2) Fold
Fold Decrease From VC, XTT Endpoint [5]: (4.0) Fold
TCID50, P24 Endpoint [5]: 6398
TCID50, RT Endpoint [5]: 25588
TCID50, XTT Endpoint [5]: 1132
concentrations resulting in reduced infectivity (15 minutes incubation): ≥ 3.9 nM
reduction of viral replication (1000, 500, 250 or 125 nM, 2 hours): 2-4 fold
Fold Decrease From VC, P24 Endpoint [6]: (0) Fold
Fold Decrease From VC, RT Endpoint [6]: (1.0) Fold
Fold Decrease From VC, XTT Endpoint [6]: (1.1) Fold
TCID50, P24 Endpoint [6]: 36337
TCID50, RT Endpoint [6]: 157772
TCID50, XTT Endpoint [6]: 16145
Fold Decrease From VC, P24 Endpoint [7]: (0) Fold
Fold Decrease From VC, RT Endpoint [7]: (1.1) Fold
Fold Decrease From VC, XTT Endpoint [7]: (1.1) Fold
TCID50, P24 Endpoint [7]: 30411
TCID50, RT Endpoint [7]: 144887
TCID50, XTT Endpoint [7]: 16145
Fold Decrease From VC, P24 Endpoint [8]: (1.4) Fold
Fold Decrease From VC, RT Endpoint [8]: (1.6) Fold
Fold Decrease From VC, XTT Endpoint [8]: (1.4) Fold
TCID50, P24 Endpoint [8]: 21529
TCID50, RT Endpoint [8]: 102336
TCID50, XTT Endpoint [8]: 12795
Fold Decrease From VC, P24 Endpoint [9]: (0) Fold
Fold Decrease From VC, RT Endpoint [9]: (1.6) Fold
Fold Decrease From VC, XTT Endpoint [9]: (2.0) Fold
TCID50, P24 Endpoint [9]: 30411
TCID50, RT Endpoint [9]: 102336
TCID50, XTT Endpoint [9]: 9058
Fold Decrease From VC, P24 Endpoint [10]: (2.0) Fold
Fold Decrease From VC, RT Endpoint [10]: (1.6) Fold
Fold Decrease From VC, XTT Endpoint [10]: (4.0) Fold
TCID50, P24 Endpoint [10]: 15207
TCID50, RT Endpoint [10]: 102336
TCID50, XTT Endpoint [10]: 4529
Fold Decrease From VC, P24 Endpoint [11]: (5.6) Fold
Fold Decrease From VC, RT Endpoint [11]: (1.6) Fold
Fold Decrease From VC, XTT Endpoint [11]: (4.0) Fold
TCID50, P24 Endpoint [11]: 5383
TCID50, RT Endpoint [11]: 102336
TCID50, XTT Endpoint [11]: 4529
Fold Decrease From VC, P24 Endpoint [12]: (4.0) Fold
Fold Decrease From VC, RT Endpoint [12]: (2.5) Fold
Fold Decrease From VC, XTT Endpoint [12]: (3.6) Fold
TCID50, P24 Endpoint [12]: 7604
TCID50, RT Endpoint [12]: 64570
TCID50, XTT Endpoint [12]: 5082
Fold Decrease From VC, P24 Endpoint [13]: (4.0) Fold
Fold Decrease From VC, RT Endpoint [13]: (2.5) Fold
Fold Decrease From VC, XTT Endpoint [13]: (4.5) Fold
TCID50, P24 Endpoint [13]: 7604
TCID50, RT Endpoint [13]: 64570
